Results as given in US8933230B2, “Phosphorus-containing group-substituted quinoline, its preparation process, medical composition containing the compounds and application” (priority 2011, dated 2015).

Assays:
Assay in all cases: KinomeScan kinase panel
Format in all cases: binding
CAMK1D = molecular target: T1, CAMK1D (Homo sapiens, UniProt Q8IU85)
T1 construct: purchased DiscoveRx Corporation (KinomeScan)
Procedure, shortened: (§1)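 Each kinase in a 442-kinase KinomeScan set is assayed with compound present at 1000 nM, and percentage-type inhibition at that level is given.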

[1] = molecular target: T2, ABL1(T315I)-phosphorylated (Homo sapiens, UniProt P00519, T315I)
T2 construct: purchased DiscoveRx Corporation (KinomeScan)
Procedure, shortened: as §1

CSNK1G2 = molecular target: T3, CSNK1G2 (Homo sapiens, UniProt P78368)
T3 construct: purchased DiscoveRx Corporation (KinomeScan)
Procedure, shortened: as §1

BIKE = molecular target: T4, BIKE (Homo sapiens, UniProt Q9NSY1)
T4 construct: purchased DiscoveRx Corporation (KinomeScan)
Procedure, shortened: as §1

PAKC-alpha = molecular target: T5, PAKC-alpha (Homo sapiens, UniProt P17612)
T5 construct: purchased DiscoveRx Corporation (KinomeScan)
Procedure, shortened: as §1

PIP5K1A = molecular target: T6, PIP5K1A (Homo sapiens, UniProt Q99755)
T6 construct: purchased DiscoveRx Corporation (KinomeScan)
Procedure, shortened: as §1

RET (V804M) = molecular target: T7, RET (V804M) (Homo sapiens, UniProt P07949, V804M)
T7 construct: purchased DiscoveRx Corporation
Procedure, shortened: as §1

MYO3B = molecular target: T8, MYO3B (Homo sapiens, UniProt Q8WXR4)
T8 construct: purchased DiscoveRx Corporation (KinomeScan)
Procedure, shortened: as §1

CDK4-cyclinD3 = molecular target: T9, CDK4-cyclinD3 (Homo sapiens, UniProt P11802)
T9 construct: purchased DiscoveRx Corporation (KinomeScan)
Procedure, shortened: as §1

EGFR(L747-E749del,A750P) = molecular target: T10, EGFR(L747-E749del,A750P) (Homo sapiens, UniProt P00533, A750P/DEL747-749)
T10 construct: purchased DiscoveRx Corporation (KinomeScan)
Procedure, shortened: as §1

MEK6 = molecular target: T11, MEK6 (Homo sapiens, UniProt P52564)
T11 construct: purchased DiscoveRx Corporation (KinomeScan)
Procedure, shortened: as §1

[2] = molecular target: T12, ABL1(Q252H)-phosphorylated (Homo sapiens, UniProt P00519, Q252H)
T12 construct: purchased DiscoveRx Corporation (KinomeScan)
Procedure, shortened: as §1

NDR1 = molecular target: T13, NDR1 (Homo sapiens, UniProt Q15208)
T13 construct: purchased DiscoveRx Corporation (KinomeScan)
Procedure, shortened: as §1

BRAF = molecular target: T14, BRAF (Homo sapiens, UniProt P15056)
T14 construct: purchased DiscoveRx Corporation (KinomeScan)
Procedure, shortened: as §1

ACVR2B = molecular target: T15, ACVR2B (Homo sapiens, UniProt Q13705)
T15 construct: purchased DiscoveRx Corporation (KinomeScan)
Procedure, shortened: as §1

CDK9 = molecular target: T16, CDK9 (Homo sapiens, UniProt P50750)
T16 construct: purchased DiscoveRx Corporation (KinomeScan)
Procedure, shortened: as §1

CSNK2A2 = molecular target: T17, CSNK2A2 (Homo sapiens, UniProt P19784)
T17 construct: purchased DiscoveRx Corporation (KinomeScan)
Procedure, shortened: as §1

[3] = molecular target: T18, TYK2(JH1domain-catalytic) (Homo sapiens, UniProt P29597)
T18 construct: JH1domain; purchased DiscoveRx Corporation (KinomeScan)
Procedure, shortened: as §1

FGFR3(G697C) = molecular target: T19, FGFR3(G697C) (Homo sapiens, UniProt P22607, G697C)
T19 construct: purchased DiscoveRx Corporation (KinomeScan)
Procedure, shortened: as §1

PRKR = molecular target: T20, PRKR (Homo sapiens, UniProt P19525)
T20 construct: purchased DiscoveRx Corporation (KinomeScan)
Procedure, shortened: as §1

TEC = molecular target: T21, TEC (Homo sapiens, UniProt P42680)
T21 construct: purchased DiscoveRx Corporation (KinomeScan)
Procedure, shortened: as §1

PRKD1 = molecular target: T22, PRKD1 (Homo sapiens, UniProt Q15139)
T22 construct: purchased DiscoveRx Corporation (KinomeScan)
Procedure, shortened: as §1

RIPK4 = molecular target: T23, RIPK4 (Homo sapiens, UniProt P57078)
T23 construct: purchased DiscoveRx Corporation
Procedure, shortened: as §1

MRCKB = molecular target: T24, MRCKB (Homo sapiens, UniProt Q9Y5S2)
T24 construct: purchased DiscoveRx Corporation (KinomeScan)
Procedure, shortened: as §1

MEK1 = molecular target: T25, MEK1 (Homo sapiens, UniProt Q02750)
T25 construct: purchased DiscoveRx Corporation (KinomeScan)
Procedure, shortened: as §1

MAP4K2 = molecular target: T26, MAP4K2 (Homo sapiens, UniProt Q12851)
T26 construct: purchased DiscoveRx Corporation (KinomeScan)
Procedure, shortened: as §1

EPHA7 = molecular target: T27, EPHA7 (Homo sapiens, UniProt Q15375)
T27 construct: purchased DiscoveRx Corporation (KinomeScan)
Procedure, shortened: as §1

FGFR = molecular target: T28, FGFR (Homo sapiens, UniProt P21802)
T28 construct: purchased DiscoveRx Corporation (KinomeScan)
Procedure, shortened: as §1

EPHB6 = molecular target: T29, EPHB6 (Homo sapiens, UniProt O15197)
T29 construct: purchased DiscoveRx Corporation (KinomeScan)
Procedure, shortened: as §1

HIPK1 = molecular target: T30, HIPK1 (Homo sapiens, UniProt Q86Z02)
T30 construct: purchased DiscoveRx Corporation (KinomeScan)
Procedure, shortened: as §1

SNRK = molecular target: T31, SNRK (Homo sapiens, UniProt Q9NRH2)
T31 construct: purchased DiscoveRx Corporation (KinomeScan)
Procedure, shortened: as §1

MAPKAPK2 = molecular target: T32, MAPKAPK2 (Homo sapiens, UniProt P49137)
T32 construct: purchased DiscoveRx Corporation (KinomeScan)
Procedure, shortened: as §1

HPK1 = molecular target: T33, HPK1 (Homo sapiens, UniProt Q92918)
T33 construct: purchased DiscoveRx Corporation (KinomeScan)
Procedure, shortened: as §1

CSF1R = molecular target: T34, CSF1R (Homo sapiens, UniProt P07333)
T34 construct: purchased DiscoveRx Corporation (KinomeScan)
Procedure, shortened: as §1

CDK5 = molecular target: T35, CDK5 (Homo sapiens, UniProt Q00535)
T35 construct: purchased DiscoveRx Corporation (KinomeScan)
Procedure, shortened: as §1

T16 sequence (P50750 whole entry): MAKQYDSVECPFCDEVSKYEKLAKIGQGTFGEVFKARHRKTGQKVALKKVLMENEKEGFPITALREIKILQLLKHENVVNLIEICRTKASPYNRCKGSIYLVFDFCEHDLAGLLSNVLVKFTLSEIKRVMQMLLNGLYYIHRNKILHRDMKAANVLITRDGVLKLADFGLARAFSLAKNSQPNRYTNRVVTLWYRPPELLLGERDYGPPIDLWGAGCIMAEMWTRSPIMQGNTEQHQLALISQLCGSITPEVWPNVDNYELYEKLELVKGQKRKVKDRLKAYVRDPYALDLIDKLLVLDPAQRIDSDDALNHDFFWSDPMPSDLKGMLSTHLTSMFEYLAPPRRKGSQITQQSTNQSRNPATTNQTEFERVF
T6 sequence (Q99755 whole entry): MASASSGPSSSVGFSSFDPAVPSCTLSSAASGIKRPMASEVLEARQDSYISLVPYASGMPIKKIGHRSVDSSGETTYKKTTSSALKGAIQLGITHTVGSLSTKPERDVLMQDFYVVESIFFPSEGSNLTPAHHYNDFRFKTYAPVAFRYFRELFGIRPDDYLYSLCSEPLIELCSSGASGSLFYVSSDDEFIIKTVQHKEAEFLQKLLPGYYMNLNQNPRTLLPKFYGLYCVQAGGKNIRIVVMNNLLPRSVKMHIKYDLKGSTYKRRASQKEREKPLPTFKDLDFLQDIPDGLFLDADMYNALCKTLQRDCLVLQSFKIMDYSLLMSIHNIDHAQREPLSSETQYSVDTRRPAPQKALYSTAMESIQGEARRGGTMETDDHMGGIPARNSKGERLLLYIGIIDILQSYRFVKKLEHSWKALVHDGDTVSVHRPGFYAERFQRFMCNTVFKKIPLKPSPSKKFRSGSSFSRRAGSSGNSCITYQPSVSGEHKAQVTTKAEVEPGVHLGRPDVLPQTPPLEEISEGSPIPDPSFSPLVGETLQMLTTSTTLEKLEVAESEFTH
T13 sequence (Q15208 whole entry): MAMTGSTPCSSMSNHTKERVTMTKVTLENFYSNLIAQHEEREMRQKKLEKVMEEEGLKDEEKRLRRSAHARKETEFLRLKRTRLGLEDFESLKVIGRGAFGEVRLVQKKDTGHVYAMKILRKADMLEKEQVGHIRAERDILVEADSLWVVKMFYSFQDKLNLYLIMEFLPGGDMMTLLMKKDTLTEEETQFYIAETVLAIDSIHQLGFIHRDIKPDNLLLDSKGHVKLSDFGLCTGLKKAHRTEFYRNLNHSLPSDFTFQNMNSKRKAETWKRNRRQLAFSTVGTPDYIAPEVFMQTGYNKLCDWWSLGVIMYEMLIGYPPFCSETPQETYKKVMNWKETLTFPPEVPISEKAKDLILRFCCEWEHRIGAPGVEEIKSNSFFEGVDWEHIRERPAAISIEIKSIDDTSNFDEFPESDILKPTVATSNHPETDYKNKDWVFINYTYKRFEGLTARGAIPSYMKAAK
T28 sequence (P21802 458-770 limits assumed): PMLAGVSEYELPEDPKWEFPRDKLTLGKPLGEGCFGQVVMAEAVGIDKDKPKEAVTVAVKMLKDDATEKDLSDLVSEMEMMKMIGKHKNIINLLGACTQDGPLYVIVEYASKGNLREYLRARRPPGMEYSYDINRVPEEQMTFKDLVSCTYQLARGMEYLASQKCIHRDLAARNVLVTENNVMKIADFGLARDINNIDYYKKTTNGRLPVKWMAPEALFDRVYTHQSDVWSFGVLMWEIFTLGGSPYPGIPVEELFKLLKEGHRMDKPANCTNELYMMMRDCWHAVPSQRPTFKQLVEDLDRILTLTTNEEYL
T14 sequence (P15056 whole entry): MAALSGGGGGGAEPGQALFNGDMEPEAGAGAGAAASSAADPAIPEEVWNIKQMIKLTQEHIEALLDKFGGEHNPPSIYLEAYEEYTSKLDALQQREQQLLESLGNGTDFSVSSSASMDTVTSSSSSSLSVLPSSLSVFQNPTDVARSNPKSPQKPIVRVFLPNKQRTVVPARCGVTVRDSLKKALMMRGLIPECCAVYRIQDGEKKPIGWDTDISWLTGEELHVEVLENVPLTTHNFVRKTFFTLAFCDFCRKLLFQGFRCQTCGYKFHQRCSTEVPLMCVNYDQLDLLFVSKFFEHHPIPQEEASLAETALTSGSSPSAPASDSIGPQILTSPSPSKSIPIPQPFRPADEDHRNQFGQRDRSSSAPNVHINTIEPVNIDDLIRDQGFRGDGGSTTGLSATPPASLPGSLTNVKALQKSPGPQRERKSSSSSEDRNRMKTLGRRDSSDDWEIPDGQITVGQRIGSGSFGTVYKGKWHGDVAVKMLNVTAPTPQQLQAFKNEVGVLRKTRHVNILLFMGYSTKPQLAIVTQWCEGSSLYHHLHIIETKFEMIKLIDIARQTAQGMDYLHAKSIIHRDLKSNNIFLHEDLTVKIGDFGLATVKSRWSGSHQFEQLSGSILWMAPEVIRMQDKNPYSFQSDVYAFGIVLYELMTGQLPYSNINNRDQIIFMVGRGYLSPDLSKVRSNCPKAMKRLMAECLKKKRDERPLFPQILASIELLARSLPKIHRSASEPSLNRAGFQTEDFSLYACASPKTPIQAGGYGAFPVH
T26 sequence (Q12851 whole entry): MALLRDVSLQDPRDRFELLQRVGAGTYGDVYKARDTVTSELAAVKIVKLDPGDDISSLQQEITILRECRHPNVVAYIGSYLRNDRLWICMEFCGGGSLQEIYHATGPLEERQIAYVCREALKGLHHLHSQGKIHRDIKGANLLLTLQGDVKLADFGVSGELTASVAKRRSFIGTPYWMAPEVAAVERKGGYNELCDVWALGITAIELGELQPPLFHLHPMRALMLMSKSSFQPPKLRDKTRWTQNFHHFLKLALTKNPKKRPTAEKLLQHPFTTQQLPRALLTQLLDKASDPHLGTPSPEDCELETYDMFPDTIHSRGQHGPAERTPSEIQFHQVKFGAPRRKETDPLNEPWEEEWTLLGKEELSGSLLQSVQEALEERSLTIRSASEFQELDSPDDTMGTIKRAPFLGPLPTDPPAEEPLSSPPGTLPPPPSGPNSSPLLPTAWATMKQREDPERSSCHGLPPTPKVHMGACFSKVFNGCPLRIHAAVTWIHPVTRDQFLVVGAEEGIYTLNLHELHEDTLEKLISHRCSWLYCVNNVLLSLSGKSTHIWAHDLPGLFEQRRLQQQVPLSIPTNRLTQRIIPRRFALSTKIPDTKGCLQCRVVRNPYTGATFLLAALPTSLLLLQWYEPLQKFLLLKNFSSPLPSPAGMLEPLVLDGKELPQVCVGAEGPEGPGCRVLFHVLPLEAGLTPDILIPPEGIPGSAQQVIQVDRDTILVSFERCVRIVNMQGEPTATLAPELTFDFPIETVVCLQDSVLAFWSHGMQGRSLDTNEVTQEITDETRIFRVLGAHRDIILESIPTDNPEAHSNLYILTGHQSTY
T32 sequence (P49137 whole entry): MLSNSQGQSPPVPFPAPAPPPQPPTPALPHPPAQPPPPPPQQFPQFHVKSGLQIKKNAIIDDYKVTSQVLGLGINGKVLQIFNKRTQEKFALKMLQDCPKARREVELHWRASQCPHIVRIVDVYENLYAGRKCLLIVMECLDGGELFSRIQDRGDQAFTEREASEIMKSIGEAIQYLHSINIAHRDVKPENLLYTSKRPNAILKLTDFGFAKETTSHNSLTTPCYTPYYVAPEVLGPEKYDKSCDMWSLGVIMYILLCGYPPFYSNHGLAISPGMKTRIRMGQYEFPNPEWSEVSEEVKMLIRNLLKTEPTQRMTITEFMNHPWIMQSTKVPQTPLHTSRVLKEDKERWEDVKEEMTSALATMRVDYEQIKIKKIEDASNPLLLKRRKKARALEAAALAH
T23 sequence (P57078 whole entry): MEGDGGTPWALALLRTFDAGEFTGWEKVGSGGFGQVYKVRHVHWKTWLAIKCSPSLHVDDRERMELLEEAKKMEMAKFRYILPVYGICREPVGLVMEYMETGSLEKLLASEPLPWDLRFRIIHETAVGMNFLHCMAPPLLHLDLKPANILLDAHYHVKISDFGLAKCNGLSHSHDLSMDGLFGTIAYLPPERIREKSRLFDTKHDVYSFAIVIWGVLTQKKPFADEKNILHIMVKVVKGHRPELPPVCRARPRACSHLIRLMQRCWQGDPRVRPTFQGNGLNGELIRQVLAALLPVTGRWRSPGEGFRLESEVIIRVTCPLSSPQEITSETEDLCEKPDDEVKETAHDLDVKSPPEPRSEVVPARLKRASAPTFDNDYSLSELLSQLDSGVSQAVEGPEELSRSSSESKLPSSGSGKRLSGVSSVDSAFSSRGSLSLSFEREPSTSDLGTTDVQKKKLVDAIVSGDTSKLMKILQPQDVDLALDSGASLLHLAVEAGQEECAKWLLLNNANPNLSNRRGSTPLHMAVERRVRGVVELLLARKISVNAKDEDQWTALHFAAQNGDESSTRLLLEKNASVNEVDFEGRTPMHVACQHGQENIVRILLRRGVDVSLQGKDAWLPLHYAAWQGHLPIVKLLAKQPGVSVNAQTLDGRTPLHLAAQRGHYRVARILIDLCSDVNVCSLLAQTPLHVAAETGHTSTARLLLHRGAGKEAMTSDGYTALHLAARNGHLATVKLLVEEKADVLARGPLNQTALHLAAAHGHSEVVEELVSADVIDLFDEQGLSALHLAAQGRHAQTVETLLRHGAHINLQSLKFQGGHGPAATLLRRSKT
T25 sequence (Q02750 whole entry): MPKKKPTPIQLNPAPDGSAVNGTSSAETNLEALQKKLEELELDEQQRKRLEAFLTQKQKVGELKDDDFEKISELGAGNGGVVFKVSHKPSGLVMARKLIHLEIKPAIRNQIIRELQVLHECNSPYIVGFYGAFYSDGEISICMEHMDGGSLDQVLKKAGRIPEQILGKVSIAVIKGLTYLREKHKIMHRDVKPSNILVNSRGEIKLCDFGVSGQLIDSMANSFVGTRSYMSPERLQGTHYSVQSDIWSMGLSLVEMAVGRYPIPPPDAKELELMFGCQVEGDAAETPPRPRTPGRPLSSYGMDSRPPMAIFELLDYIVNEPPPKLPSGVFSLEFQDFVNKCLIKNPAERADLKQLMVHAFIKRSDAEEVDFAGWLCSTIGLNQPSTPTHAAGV

In the case of CCOP(=O)(CN1CCC(COc2cc3nccc(Oc4ccc(NC(=O)C5(C(=O)Nc6ccc(F)cc6)CC5)cc4F)c3cc2OC)CC1)OCC [Example 10, N1-[4-[[7-[[1-(diethoxyphosphorylmethyl)-4-piperidinyl]methoxyl]-6-methoxyl-4-quinolyl]oxyl]-3-fluorophenyl]-N1′-(4-fluorophenyl)cyclopropane-1,1-dicarboxamide], the “% Ctrl@1000 nM” value (CAMK1D) is reported as 96 % Ctrl, the “% Ctrl@1000 nM” value [1] is reported as 75 % Ctrl and the “% Ctrl@1000 nM” value (CSNK1G2) is reported as 100 % Ctrl. The “% Ctrl@1000 nM” value (BIKE) was 100 % Ctrl, the “% Ctrl@1000 nM” value (PAKC-alpha) was 100 % Ctrl and the “% Ctrl@1000 nM” value (PIP5K1A) was 100 % Ctrl. For the same compound, the “% Ctrl@1000 nM” value (RET (V804M)) was 0.6 % Ctrl, the “% Ctrl@1000 nM” value (MYO3B) was 100 % Ctrl and the “% Ctrl@1000 nM” value (CDK4-cyclinD3) was 100 % Ctrl. For the same compound, the “% Ctrl@1000 nM” value (EGFR(L747-E749del,A750P)) was 67 % Ctrl, the “% Ctrl@1000 nM” value (MEK6) was 87 % Ctrl and the “% Ctrl@1000 nM” value [2] was 84 % Ctrl. For the same compound, the “% Ctrl@1000 nM” value (NDR1) was 100 % Ctrl, the “% Ctrl@1000 nM” value (BRAF) was 100 % Ctrl and the “% Ctrl@1000 nM” value (ACVR2B) was 100 % Ctrl. The “% Ctrl@1000 nM” value (CDK9) was 100 % Ctrl, the “% Ctrl@1000 nM” value (CSNK2A2) was 100 % Ctrl and the “% Ctrl@1000 nM” value [3] was 92 % Ctrl. The “% Ctrl@1000 nM” value (FGFR3(G697C)) was 100 % Ctrl, the “% Ctrl@1000 nM” value (PRKR) was 100 % Ctrl and the “% Ctrl@1000 nM” value (TEC) was 100 % Ctrl. For the same compound, the “% Ctrl@1000 nM” value (PRKD1) was 100 % Ctrl, the “% Ctrl@1000 nM” value (RIPK4) was 89 % Ctrl and the “% Ctrl@1000 nM” value (MRCKB) was 100 % Ctrl. For the same compound, the “% Ctrl@1000 nM” value (MEK1) was 24 % Ctrl, the “% Ctrl@1000 nM” value (MAP4K2) was 100 % Ctrl and the “% Ctrl@1000 nM” value (EPHA7) was 0.8 % Ctrl. For the same compound, the “% Ctrl@1000 nM” value (FGFR) was 76 % Ctrl, the “% Ctrl@1000 nM” value (EPHB6) was 0.9 % Ctrl and the “% Ctrl@1000 nM” value (HIPK1) was 92 % Ctrl. The “% Ctrl@1000 nM” value (SNRK) was 100 % Ctrl, the “% Ctrl@1000 nM” value (MAPKAPK2) was 100 % Ctrl and the “% Ctrl@1000 nM” value (HPK1) was 40 % Ctrl. The “% Ctrl@1000 nM” value (CSF1R) was 0.25 % Ctrl and the “% Ctrl@1000 nM” value (CDK5) was 100 % Ctrl.
